Read-outs that look alike come from different tables or passages of the source. Where a SMILES comes first, the peptide text is derived from it. Where no end group is shown, it is not given here. [ ]: non-standard residue; d: D form. Aib = CC(C)(N)C(=O)O

We go through nine molecules from patent publication US20150344540A1, “NOVEL GLP-1 RECEPTOR AGONISTS WITH CHOLESTEROL EFFLUX ACTIVITY” (NOVO NORDISK A/S, priority 2012, published 2015).

The target of experiment [1] is human GLP-1 receptor (Homo sapiens, UniProt P43220). As to the kind of experiment: Functional GLP-1 receptor assay, in vitro potency (CRE luciferase; whole cells). It counts as cell-based.
In experiment [2] the test system is Mouse monocyte/macrophage cell line, RAW 264.7. As to the kind of experiment: Cholesterol efflux assay (3H-cholesterol, macrophage cell line). It counts as cell-based. The settings on record: RAW 264.7, 4 hrs incubation, 0.1% human serum albumin; for 4 h Cholesterol Efflux Emax: ABCA1-mediated efflux; for EC50: read-out: 4 h Cholesterol Efflux EC50, ABCA1-mediated efflux (CPT-cAMP induced minus non-induced).

Setting [3] is: BHK cells expressing human GLP-1 receptor, 0% HSA, read-out: GLP1R CRE luc 0% HSA EC50 Mean Value.
The mark [4] stands for this setting: GLP1R CRE luc 1% HSA EC50 Mean Value, BHK cells expressing human GLP-1 receptor, 1% HSA.

Chain of human GLP-1 receptor (P43220 24-463): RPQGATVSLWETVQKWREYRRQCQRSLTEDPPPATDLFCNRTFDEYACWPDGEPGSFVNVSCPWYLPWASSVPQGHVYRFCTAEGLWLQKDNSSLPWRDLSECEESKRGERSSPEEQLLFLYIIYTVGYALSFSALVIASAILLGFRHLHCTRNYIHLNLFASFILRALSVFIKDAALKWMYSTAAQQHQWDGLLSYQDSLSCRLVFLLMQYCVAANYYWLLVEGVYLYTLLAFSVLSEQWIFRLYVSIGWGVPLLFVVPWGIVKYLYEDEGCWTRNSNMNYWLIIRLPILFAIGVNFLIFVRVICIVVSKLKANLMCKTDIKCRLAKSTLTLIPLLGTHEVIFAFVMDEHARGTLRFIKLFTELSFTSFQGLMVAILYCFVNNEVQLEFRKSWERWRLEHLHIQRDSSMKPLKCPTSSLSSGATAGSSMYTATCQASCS

One may read the EC50 as the concentration that produces a half-maximal response. Consider `CC[C@H](C)[C@H](NC(=O)[C@H](Cc1ccccc1)NC(=O)[C@H](CCC(=O)O)NC(=O)[C@H](CCCCN)NC(=O)[C@@H](NC(=O)[C@H](C)NC(=O)[C@H](CCC(=O)O)NC(=O)CNC(=O)[C@H](CCC(=O)O)NC(=O)[C@H](CC(C)C)NC(=O)[C@H](Cc1ccc(O)cc1)NC(=O)[C@H](CO)NC(=O)[C@H](CO)NC(=O)[C@@H](NC(=O)[C@H](CC(=O)O)NC(=O)[C@H](CO)NC(=O)[C@@H](NC(=O)[C@H](Cc1ccccc1)NC(=O)[C@@H](NC(=O)CNC(=O)[C@H](CCC(=O)O)NC(=O)C(C)(C)NC(=O)[C@@H](N)Cc1c[nH]cn1)[C@@H](C)O)[C@@H](C)O)C(C)C)C(C)C)C(=O)N[C@@H](C)C(=O)N[C@@H](Cc1c[nH]c2ccccc12)C(=O)N[C@@H](CC(C)C)C(=O)N[C@H](C(=O)N[C@@H](CCC(=O)O)C(=O)NCC(=O)NC(C)(C)C(=O)N[C@@H](CCCCN)C(=O)N[C@@H](CCC(=O)O)C(=O)N[C@@H](Cc1ccccc1)C(=O)N[C@@H](CC(C)C)C(N)=O)C(C)C` [Compound 30, [Aib8,Glu23,Val25,Glu34,Aib36,Lys37]-GLP-1-(7-37)-peptidyl-Glu-Phe-Leu amide] (H-H[Aib]EGTFTSDVSSYLEGEAVKEFIAWLVEG[Aib]KEFL-NH2), for which the values for the EC50 in experiment [1] (setting [3]) and in experiment [1] (setting [4]) were 34 pM and 13 pM, respectively. In experiment [2], the “4 h Cholesterol Efflux Emax” value is listed as 75%.

`CC[C@H](C)[C@H](NC(=O)[C@H](Cc1ccccc1)NC(=O)[C@H](CCC(=O)O)NC(=O)[C@H](CCCCN)NC(=O)[C@@H](NC(=O)[C@H](C)NC(=O)[C@H](CCC(=O)O)NC(=O)CNC(=O)[C@H](CCC(=O)O)NC(=O)[C@H](CC(C)C)NC(=O)[C@H](Cc1ccc(O)cc1)NC(=O)[C@H](CO)NC(=O)[C@H](CO)NC(=O)[C@@H](NC(=O)[C@H](CC(=O)O)NC(=O)[C@H](CO)NC(=O)[C@@H](NC(=O)[C@H](Cc1ccccc1)NC(=O)[C@@H](NC(=O)CNC(=O)[C@H](CCC(=O)O)NC(=O)C(C)(C)NC(=O)[C@@H](N)Cc1c[nH]cn1)[C@@H](C)O)[C@@H](C)O)C(C)C)C(C)C)C(=O)N[C@@H](CCCCN)C(=O)N[C@@H](Cc1c[nH]c2ccccc12)C(=O)N[C@@H](CC(C)C)C(=O)N[C@H](C(=O)N[C@@H](CCC(=O)O)C(=O)N[C@@H](CCCCN)C(=O)NC(C)(C)C(=O)N[C@@H](CCCCN)C(=O)N[C@@H](CCC(=O)O)C(=O)N[C@@H](Cc1ccccc1)C(=O)N[C@@H](CC(C)C)C(N)=O)C(C)C` [Compound 86, [Aib8,Glu23,Val25,Lys30,Glu34,Lys35,Aib36,Lys37]-GLP-1-(7-37)-peptidyl-Glu-Phe-Leu amide] (H-H[Aib]EGTFTSDVSSYLEGEAVKEFIKWLVEK[Aib]KEFL-NH2): the EC50 in experiment [1] (setting [3]) is 103 pM; in experiment [1] (setting [4]) it was 43 pM. The “4 h Cholesterol Efflux Emax” value in experiment [2] worked out at 102%.

Regarding “H-HAEGTFTSDVSSYLEGQAAKEFIAWLVEKVKEFLER-OH [Compound 130, [Glu34,Lys35,Val36,Lys37]-GLP-1-(7-37)-peptidyl-Glu-Phe-Leu-Glu-Arg]”, the EC50 in experiment [1] (setting [3]) was 34 pM; in experiment [1] (setting [4]), 11 pM. The “4 h Cholesterol Efflux Emax” value in experiment [2] turned out to be 125%.

The molecule `CC[C@H](C)[C@H](NC(=O)[C@H](Cc1ccccc1)NC(=O)[C@H](CCC(=O)O)NC(=O)[C@H](CCCCN)NC(=O)[C@@H](NC(=O)[C@H](C)NC(=O)[C@H](CCC(=O)O)NC(=O)CNC(=O)[C@H](CCC(=O)O)NC(=O)[C@H](CC(C)C)NC(=O)[C@H](Cc1ccc(O)cc1)NC(=O)[C@H](CO)NC(=O)[C@H](CO)NC(=O)[C@@H](NC(=O)[C@H](CC(=O)O)NC(=O)[C@H](CO)NC(=O)[C@@H](NC(=O)[C@H](Cc1ccccc1)NC(=O)[C@@H](NC(=O)CNC(=O)[C@H](CCC(=O)O)NC(=O)C(C)(C)NC(=O)[C@@H](N)Cc1c[nH]cn1)[C@@H](C)O)[C@@H](C)O)C(C)C)C(C)C)C(=O)N[C@@H](C)C(=O)N[C@@H](Cc1c[nH]c2ccccc12)C(=O)N[C@@H](CC(C)C)C(=O)N[C@@H](CC(C)C)C(=O)N[C@@H](CCC(=O)O)C(=O)N[C@@H](CCCCN)C(=O)NC(C)(C)C(=O)N[C@@H](CCCCN)C(=O)N[C@@H](CCC(=O)O)C(=O)N[C@@H](Cc1ccccc1)C(=O)N[C@@H](CC(C)C)C(N)=O` [Compound 84, [Aib8,Glu23,Val25,Leu33,Glu34,Lys35,Aib36,Lys37]-GLP-1-(7-37)-peptidyl-Glu-Phe-Leu amide] (H-H[Aib]EGTFTSDVSSYLEGEAVKEFIAWLLEK[Aib]KEFL-NH2) had an EC50 in experiment [1] (setting [4]) of 76 pM. Moreover, the “4 h Cholesterol Efflux Emax” value in experiment [2] is 94%.

In the case of `CC[C@H](C)[C@H](NC(=O)[C@H](Cc1ccccc1)NC(=O)[C@H](CCC(=O)O)NC(=O)[C@H](CCCCN)NC(=O)[C@H](C)NC(=O)[C@H](C)NC(=O)[C@H](CCC(=O)O)NC(=O)[C@H](CCC(=O)O)NC(=O)[C@H](CCC(=O)O)NC(=O)[C@H](CC(C)C)NC(=O)[C@H](Cc1ccc(O)cc1)NC(=O)[C@H](CCCCN)NC(=O)[C@H](CO)NC(=O)[C@H](Cc1ccc(O)cc1)NC(=O)[C@H](CC(=O)O)NC(=O)[C@H](CO)NC(=O)[C@@H](NC(=O)[C@H](Cc1ccccc1)NC(=O)[C@@H](NC(=O)CNC(=O)[C@H](Cc1c[nH]cn1)NC(=O)C(C)(C)NC(=O)[C@@H](N)Cc1c[nH]cn1)[C@@H](C)O)[C@@H](C)O)C(=O)N[C@@H](C)C(=O)N[C@@H](Cc1c[nH]c2ccccc12)C(=O)N[C@@H](CC(C)C)C(=O)N[C@@H](CC(C)C)C(=O)N[C@@H](CCC(=O)O)C(=O)N[C@@H](CCCCN)C(=O)NC(C)(C)C(=O)N[C@@H](CCCCN)C(=O)N[C@@H](CCC(=O)O)C(=O)N[C@@H](Cc1ccccc1)C(=O)N[C@@H](CC(C)C)C(N)=O` [Compound 55] (H-H[Aib]HGTFTSDYSKYLEEEAAKEFIAWLLEK[Aib]KEFL-NH2), the EC50 in experiment [1] (setting [3]) is 80 pM; in experiment [1] (setting [4]) it was 49 pM. Besides, the “4 h Cholesterol Efflux Emax” value in experiment [2] worked out at 96%.

For `CC[C@H](C)[C@H](NC(=O)[C@H](Cc1ccccc1)NC(=O)[C@H](CCC(=O)O)NC(=O)[C@H](CCCCN)NC(=O)[C@@H](NC(=O)[C@H](CCCNC(=N)N)NC(=O)[C@H](CCC(=O)O)NC(=O)CNC(=O)[C@H](CCC(=O)O)NC(=O)[C@H](CC(C)C)NC(=O)[C@H](Cc1ccc(O)cc1)NC(=O)[C@H](CO)NC(=O)[C@H](CO)NC(=O)[C@@H](NC(=O)[C@H](CC(=O)O)NC(=O)[C@H](CO)NC(=O)[C@@H](NC(=O)[C@H](Cc1ccccc1)NC(=O)[C@@H](NC(=O)CNC(=O)[C@H](CCC(=O)O)NC(=O)C(C)(C)NC(=O)[C@@H](N)Cc1c[nH]cn1)[C@@H](C)O)[C@@H](C)O)C(C)C)C(C)C)C(=O)N[C@@H](C)C(=O)N[C@@H](Cc1c[nH]c2ccccc12)C(=O)N[C@@H](CC(C)C)C(=O)N[C@H](C(=O)N[C@@H](CCC(=O)O)C(=O)N[C@@H](CCCCN)C(=O)NC(C)(C)C(=O)N[C@@H](CCCCN)C(=O)N[C@@H](CCC(=O)O)C(=O)N[C@@H](Cc1ccccc1)C(=O)N[C@@H](CC(C)C)C(N)=O)C(C)C` [Compound 53, [Aib8,Glu23,Arg24,Val25,Glu34,Lys35,Aib36,Lys37]-GLP-1-(7-37)-peptidyl-Glu-Phe-Leu amide] (H-H[Aib]EGTFTSDVSSYLEGERVKEFIAWLVEK[Aib]KEFL-NH2), the response in experiment [1] (setting [4]) was half-maximal at 273 pM (EC50). In experiment [2], the “4 h Cholesterol Efflux Emax” value worked out at 109%.

`CC(C)C[C@H](NC(=O)[C@H](Cc1ccccc1)NC(=O)[C@H](CCC(=O)O)NC(=O)[C@H](CCCCN)NC(=O)C(C)(C)NC(=O)[C@H](CCCCN)NC(=O)[C@H](CCC(=O)O)NC(=O)[C@H](CC(C)C)NC(=O)[C@H](CC(C)C)NC(=O)[C@H](Cc1c[nH]c2ccccc12)NC(=O)[C@H](CCC(N)=O)NC(=O)[C@@H](NC(=O)[C@H](Cc1ccccc1)NC(=O)[C@H](CCC(=O)O)NC(=O)[C@H](CCCNC(=N)N)NC(=O)[C@H](C)NC(=O)[C@H](C)NC(=O)[C@H](CCCCN)NC(=O)CNC(=O)[C@H](CC(=O)O)NC(=O)[C@H](CC(C)C)NC(=O)[C@H](Cc1ccc(O)cc1)NC(=O)[C@H](CCCCN)NC(=O)[C@H](CO)NC(=O)[C@H](Cc1ccc(O)cc1)NC(=O)[C@H](CC(=O)O)NC(=O)[C@H](CO)NC(=O)[C@@H](NC(=O)[C@H](Cc1ccccc1)NC(=O)[C@@H](NC(=O)CNC(=O)[C@H](CCC(N)=O)NC(=O)C(C)(C)NC(=O)[C@@H](N)Cc1c[nH]cn1)[C@@H](C)O)[C@@H](C)O)C(C)C)C(N)=O` [Compound 24] (H-H[Aib]QGTFTSDYSKYLDGKAAREFVQWLLEK[Aib]KEFL-NH2): the EC50 in experiment [1] (setting [3]) amounted to 1630 pM; in experiment [1] (setting [4]), 908 pM. Also, the “4 h Cholesterol Efflux Emax” value in experiment [2] was found to be 82%.

On to “HAEGTFTSDLSKQMEEEAVREFIEWLKNKVLEFL-NH2 [Compound 69, [Ala2,Glu21,Lys29,Val30,Leu31,Glu32,Phe33,Leu34]-Exendin-4-(1-34)-peptide amide]”, for which the EC50 in experiment [1] (setting [3]) worked out at 31 pM; in experiment [1] (setting [4]), 20 pM; in experiment [2], 410000 pM.

As for `CC(C)C[C@H](NC(=O)[C@H](Cc1ccccc1)NC(=O)[C@H](CCC(=O)O)NC(=O)[C@H](CCCCN)NC(=O)C(C)(C)NC(=O)[C@H](CCCCN)NC(=O)[C@H](CCC(=O)O)NC(=O)[C@@H](NC(=O)[C@H](CC(C)C)NC(=O)[C@H](Cc1c[nH]c2ccccc12)NC(=O)[C@H](CCC(N)=O)NC(=O)[C@@H](NC(=O)[C@H](Cc1ccccc1)NC(=O)[C@H](CCC(=O)O)NC(=O)[C@H](CCCCN)NC(=O)[C@@H](NC(=O)[C@H](C)NC(=O)[C@H](CCC(=O)O)NC(=O)CNC(=O)[C@H](CCC(=O)O)NC(=O)[C@H](CC(C)C)NC(=O)[C@H](Cc1ccc(O)cc1)NC(=O)[C@H](CO)NC(=O)[C@H](CO)NC(=O)[C@@H](NC(=O)[C@H](CC(=O)O)NC(=O)[C@H](CO)NC(=O)[C@@H](NC(=O)[C@H](Cc1ccccc1)NC(=O)[C@@H](NC(=O)CNC(=O)[C@H](CCC(=O)O)NC(=O)C(C)(C)NC(=O)[C@@H](N)Cc1c[nH]cn1)[C@@H](C)O)[C@@H](C)O)C(C)C)C(C)C)C(C)C)C(C)C)C(N)=O` [Compound 65, [Aib8,Glu23,Val25,Val29,Gln30,Glu34,Lys35,Aib36,Lys37]-GLP-1-(7-37)-peptidyl-Glu-Phe-Leu amide] (H-H[Aib]EGTFTSDVSSYLEGEAVKEFVQWLVEK[Aib]KEFL-NH2; N-terminus assumed), the midpoint of the response in experiment [1] (GLP1R CRE luc 1% HSA EC50 Mean Value), the EC50, lay at 37 pM. In experiment [2], the “4 h Cholesterol Efflux Emax” value was 96% and the EC50 came to 410000 pM.
